Data as given in paper PMC7229161 (Scientific Reports, 2020).
Entries after “also recorded” stand apart in the source; their conditions may differ.

Key:
3XHA-cTRPV1-A578K = format: cell-based, chicken (Gallus gallus)
rTRPV1 = rTRPV1 (Rattus norvegicus, UniProt O35433); format: cell-based
cTRPV1-A578E = cTRPV1-A578E (Gallus gallus, UniProt Q8QFN9, A578E); experiment: cell-based; design: species or system chicken (Gallus gallus)
3XHA-cTRPV1-A578P = format: cell-based, chicken (Gallus gallus)
3XHA-cTRPV1-A578Q = format: cell-based, chicken (Gallus gallus)
[1] = test system: Ch6 rat-chicken TRPV1 chimera (rat N-terminus, M1-R428); format: cell-based
rTRPV1-E570Q = molecular target: T1, rTRPV1-E570Q (Rattus norvegicus, UniProt O35433, E570Q); format: cell-based
T1 construct: expressed in transfected cells; host or cells: HEK293T

rTRPV1-E570A = molecular target: T2, rTRPV1-E570A (Rattus norvegicus, UniProt O35433, E570A); format: cell-based
T2 construct: expressed in transfected cells; host or cells: HEK293T

cTRPV1 = cTRPV1 (Gallus gallus, UniProt Q8QFN9); experiment: cell-based; format: cell-based, chicken (Gallus gallus)
rTRPV1-E570K = molecular target: T3, rTRPV1-E570K (Rattus norvegicus, UniProt O35433, E570K); format: cell-based
T3 construct: expressed in transfected cells; host or cells: HEK293T

[2] = test system: Ch15 rat-chicken TRPV1 chimera (rat C-terminus, N687-K838); format: cell-based
rTRPV1-E570P = molecular target: T4, rTRPV1-E570P (Rattus norvegicus, UniProt O35433, E570P); format: cell-based
T4 construct: expressed in transfected cells; host or cells: HEK293T
T4 sequence (O35433 whole entry E570P): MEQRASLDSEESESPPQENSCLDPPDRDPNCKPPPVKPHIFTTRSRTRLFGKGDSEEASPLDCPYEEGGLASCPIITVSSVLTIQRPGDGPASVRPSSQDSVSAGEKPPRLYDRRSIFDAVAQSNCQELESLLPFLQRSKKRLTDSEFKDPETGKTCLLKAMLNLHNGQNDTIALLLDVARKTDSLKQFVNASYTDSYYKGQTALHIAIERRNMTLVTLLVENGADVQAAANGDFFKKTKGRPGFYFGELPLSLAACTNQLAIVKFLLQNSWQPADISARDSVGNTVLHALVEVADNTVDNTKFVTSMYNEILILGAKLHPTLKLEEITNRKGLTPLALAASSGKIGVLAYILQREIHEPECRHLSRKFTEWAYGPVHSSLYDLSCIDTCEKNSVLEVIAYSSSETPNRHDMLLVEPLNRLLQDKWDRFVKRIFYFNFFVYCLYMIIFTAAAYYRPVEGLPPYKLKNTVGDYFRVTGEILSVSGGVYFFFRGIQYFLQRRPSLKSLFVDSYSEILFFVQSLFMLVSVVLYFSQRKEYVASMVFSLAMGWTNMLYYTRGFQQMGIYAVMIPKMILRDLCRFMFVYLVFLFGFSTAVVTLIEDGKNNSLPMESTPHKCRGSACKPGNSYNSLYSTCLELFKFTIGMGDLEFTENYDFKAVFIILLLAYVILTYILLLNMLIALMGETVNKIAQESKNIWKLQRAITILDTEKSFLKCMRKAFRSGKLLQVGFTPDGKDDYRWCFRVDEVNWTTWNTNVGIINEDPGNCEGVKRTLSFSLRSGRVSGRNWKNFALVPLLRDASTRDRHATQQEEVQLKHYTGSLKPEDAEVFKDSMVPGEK

Chain of cTRPV1-A578E (Q8QFN9 1-843 A578E): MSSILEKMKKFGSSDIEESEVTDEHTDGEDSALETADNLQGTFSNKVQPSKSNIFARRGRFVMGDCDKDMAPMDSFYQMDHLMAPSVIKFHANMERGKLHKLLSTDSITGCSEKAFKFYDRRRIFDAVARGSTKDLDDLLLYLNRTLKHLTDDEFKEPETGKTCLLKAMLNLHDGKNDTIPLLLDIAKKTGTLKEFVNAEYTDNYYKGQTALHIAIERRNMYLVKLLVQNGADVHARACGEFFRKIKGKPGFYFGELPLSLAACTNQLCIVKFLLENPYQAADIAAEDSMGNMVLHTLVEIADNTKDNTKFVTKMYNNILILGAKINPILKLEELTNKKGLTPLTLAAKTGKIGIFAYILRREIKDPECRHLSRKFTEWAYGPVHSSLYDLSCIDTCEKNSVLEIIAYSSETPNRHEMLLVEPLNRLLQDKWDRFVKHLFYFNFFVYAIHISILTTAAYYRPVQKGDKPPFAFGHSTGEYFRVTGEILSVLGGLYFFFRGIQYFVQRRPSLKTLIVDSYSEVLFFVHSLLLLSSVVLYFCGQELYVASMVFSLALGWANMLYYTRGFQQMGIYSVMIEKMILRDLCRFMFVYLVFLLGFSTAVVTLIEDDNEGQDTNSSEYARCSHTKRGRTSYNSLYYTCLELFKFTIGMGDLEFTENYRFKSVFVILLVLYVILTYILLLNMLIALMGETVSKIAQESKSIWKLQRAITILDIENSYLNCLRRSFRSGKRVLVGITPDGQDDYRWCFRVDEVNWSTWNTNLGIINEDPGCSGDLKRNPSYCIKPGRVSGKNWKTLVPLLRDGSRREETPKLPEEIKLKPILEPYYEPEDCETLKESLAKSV
Chain of rTRPV1 (O35433 whole entry): as the sequence (O35433 whole entry E570P) above, with P570E counted along it
Chain of cTRPV1 (Q8QFN9 1-843): as the sequence (Q8QFN9 1-843 A578E) above, with E578A counted along it
T1 sequence (O35433 whole entry E570Q): as the sequence (O35433 whole entry E570P) above, with P570Q counted along it
T2 sequence (O35433 whole entry E570A): as the sequence (O35433 whole entry E570P) above, with P570A counted along it
T3 sequence (O35433 whole entry E570K): as the sequence (O35433 whole entry E570P) above, with P570K counted along it

COc1cc(CNC(=O)CCCC/C=C/C(C)C)ccc1OCCN [Cap-EA, O-aminoethyl capsaicin]
capsaicin analog-induced activation (3XHA-cTRPV1-A578K): partially activated
capsaicin analog-induced activation (rTRPV1): strong response
capsaicin analog-induced activation (cTRPV1-A578E): successfully activated; also recorded: strongly activated

COc1cc(CCC(C)=O)ccc1O [zingerone]
zingerone-induced activation (3XHA-cTRPV1-A578P): did not activate
zingerone-induced activation (3XHA-cTRPV1-A578K): did not activate
Zingerone-induced activity relative to capsaicin (rTRPV1): 35.9 ± 5.0%
zingerone-induced activation (rTRPV1): activated rTRPV1
zingerone-induced activation (3XHA-cTRPV1-A578Q): did not activate
zingerone-induced activation (cTRPV1-A578E): did not activate

COc1cc(CNC(=O)CCCC/C=C/C(C)C)ccc1O [capsaicin]
vanilloid responsiveness (30 μM capsaicin-induced activation normalized to cocktail-induced maximum channel opening) (3XHA-cTRPV1-A578P): greatest capsaicin sensitivity
vanilloid responsiveness (30 μM capsaicin-induced activation normalized to cocktail-induced maximum channel opening) (3XHA-cTRPV1-A578K): greatest capsaicin sensitivity
channel activation (Ca2+ signal) (rTRPV1): activated rTRPV1
capsaicin sensitivity of chimera vs cTRPV1 [1]: limited improvement in capsaicin sensitivity
responsiveness to 300 nM capsaicin normalized to protein expression level (rTRPV1-E570Q): exhibited responsiveness to 300 nM capsaicin, albeit much weaker than wildtype
capsaicin-induced responses vs wildtype rTRPV1 (rTRPV1-E570A): drastically decreased
EC50 (cTRPV1): > 30 µM
channel activation (Ca2+ signal) (cTRPV1): the response was relatively weak for cTRPV1; also recorded: limited response
vanilloid responsiveness (30 μM capsaicin-induced activation normalized to cocktail-induced maximum channel opening) (3XHA-cTRPV1-A578Q): greatest capsaicin sensitivity
EC50 (cTRPV1-A578E): 7.2 ± 9.4 µM
increase of response to 100 μM capsaicin, A578E mutant vs wildtype cTRPV1 (cTRPV1-A578E): 5 fold
vanilloid responsiveness (30 μM capsaicin-induced activation normalized to cocktail-induced maximum channel opening) (cTRPV1-A578E): greatest capsaicin sensitivity
responsiveness to 300 nM capsaicin normalized to protein expression level (rTRPV1-E570K): exhibited responsiveness to 300 nM capsaicin, albeit much weaker than wildtype
capsaicin sensitivity of chimera [2]: no capsaicin sensitivity
responsiveness to 300 nM capsaicin normalized to protein expression level (rTRPV1-E570P): reduced capsaicin sensitivity

ruthenium red
block of cocktail-elicited extracellular Ca2+ entry (rTRPV1): could be blocked
block of cocktail-elicited ion flow (cTRPV1): sufficient to block most ions

CNCCOc1ccc(CNC(=O)CCCC/C=C/C(C)C)cc1OC [Cap-EMA, O-(N-methylaminoethyl) capsaicin]
capsaicin analog-induced activation (3XHA-cTRPV1-A578K): slightly activated
capsaicin analog-induced activation (rTRPV1): strong response
